Source: PubChem BioAssay AID1963849 (Molecular Pharmacology Branch, DTP, NCI, 2024)
Where “and” joins values, the source holds several entries; their conditions need not be identical. Identical values can stand only once. One block for each compound: values may come before it.

Test system: 299254-011-R-J1-PDC complex spheroid viability
Experiment: Anticancer human tumor 299254-011-R-J1-PDC patient-derived melanoma cell line growth inhibition [POLQ]
Conditions: for viability, T/C: stronger effect = lower value
Description: Multicellular complex tumor spheroid response to Polymerase (POL) inhibitors (novobiocin, ART-558, RP6685) in combination with a variety of drugs and investigational agents in selected tumor cell lines
The POL inhibitors (novobiocin, ART-558, and RP6685) were evaluated both individually and in combination with standard of care and investigational anticancer small molecules within a complex spheroid model of solid tumors. . Complex spheroids include a stromal component modeled by human endothelial cells (HUVEC) and fibroblasts modeled by human mesenchymal stem cells (MSCs). The concentration ranges selected for each drug and investigational agent were based upon clinically achievable concentrations if the clinical Cmax of the agent was known.
Compounds. The drugs and investigational agents: novobiocin (NSC847541), ART-558 (NSC835418), RP-6685 (NSC848927), peposertib (NSC802822), ceralasertib (NSC780249), elimusertib (NSC800525), camonsertib (NSC841442), AZD-1390 (NSC803789), olaparib (NSC753686), talazoparib (NSC767125), rucaparib (NSC756644), sotorasib (NSC818433), MRTX-1133 (NSC836407), SN-38 (NSC673596), topotecan (NSC609699), epotoside (NSC141540), doxorubicin (NSC123127), gemcitabine (NSC613327), 5-fluorouracil (NSC19893), paclitaxel (NSC125973), vemurafenib (NSC761431), MSA-2 (NSC828583), SN-011 (NSC837082), adavosertib (NSC754352), prexasertib (NSC758257), carboplatin (NSC241240) and oxaliplatin (NSC266046), were obtained from the National Cancer Institute (NCI) Developmental Therapeutics Program Chemical Repository (21). The FDA-approved anticancer drug set is available from the Developmental Therapeutics Program at https://dtp.cancer.gov/organization/dscb/obtaining/. […] The stock solutions were prepared in dimethyl sulfoxide (DMSO, Sigma-Aldrich, St. Louis, MO, cat. D2650), except for the platinum compounds which were prepared in saline (Quality Biological, Gaithersburg, MD, cat. 114-055-101), at 800-fold the tested concentration and stored at -70 degrees C prior to their use. All drugs and investigational agents were tested over a range starting from a high concentration at or near the clinical Cmax and decreasing in half-log increments. If the clinical Cmax for an agent had not been determined, the highest concentration tested was 10 microM, except for SN-38, which was tested at a high concentration of 1 microM.
Cell Culture. All cells were maintained in an incubator at 37 degrees C and 5% CO2 with 95% humidity. The PDC lines were cultured according to standard operating procedures established by the NCI PDMR (https://pdmr.cancer.gov). Table 3 of the manuscript, lists the cell lines along with the number of the three cell types plated to form the mct-spheroids and media for tumor cell growth. After thawing, all PDC lines, except 997537-175-T-J1-PDC and 415267-285-R-J2-PDC, were cultured in Matrigel-coated flasks prepared with a working solution of 1X Ham's F-12 nutrient mix, without supplementation (Thermo Fisher Scientific, cat. 11765054), 100 U/mL penicillin-streptomycin (Thermo Fisher Scientific, cat. 15140122), and 2.5% Matrigel (Corning Inc., Corning, NY, cat. 354248) for the first three passages. The two PDC lines 997537-175-T-J1-PDC and 415267-285-R-J2-PDC were cultured on uncoated flasks. The 857933-349-R-J2-PDC line was cultured in 6C/Colon 1B media containing advanced DMEM/F-12 (Thermo Fisher Scientific, cat. 12634028), 10 mM HEPES (Thermo Fisher Scientific, cat. 15630080), 1X GlutaMAX supplement (Thermo Fisher Scientific, cat. 35050061), 0.1 mg/mL primocin (InvivoGen, San Diego, CA, cat. ant-pm-2), 10% defined fetal bovine serum, heat inactivated (HyClone Laboratories Inc., Logan, UT, cat. SH30070.03HI), 50% L-WRN conditioned media (ATCC, cat. CRL-3276), 1.25 mM N-Acetyl-L-cysteine (Sigma-Aldrich, cat. A9165), 10 mM nicotinamide (Sigma-Aldrich, cat. N0636), 1X B-27 supplement (Thermo Fisher Scientific, cat. 17504044), 1X N-2 supplement (Thermo Fisher Scientific, cat. […]
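Also: spheroids exposed to drugs for one week before measurement.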
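For viability, T/C in this document: percent viability relative to DMSO vehicle control taken as 100%.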

Compound: COc1cc2cc(C(=O)CCC(=O)O)sc2cc1OC + COC1C(OC(N)=O)C(O)C(Oc2ccc3c(O)c(NC(=O)c4ccc(O)c(CC=C(C)C)c4)c(=O)oc3c2C)OC1(C)C
IC50 (curve of first compound, second compound 0.0316 µM): > 10 µM
IC50 (curve of first compound, second compound 0.1 µM): > 10 µM
IC50 (curve of first compound, second compound 0.316 µM): > 10 µM
IC50 (curve of first compound, second compound 1 µM): > 10 µM
IC50 (curve of first compound, second compound 3.16 µM): > 10 µM
IC50 (curve of first compound, second compound 10 µM): > 10 µM
viability, T/C (second compound 0.0316 µM, first compound 0.0316 µM): 112%
viability, T/C (second compound 0.0316 µM, first compound 0.1 µM): 98.3%
viability, T/C (second compound 0.0316 µM, first compound 0.316 µM): 106%
viability, T/C (second compound 0.0316 µM, first compound 1 µM): 100%
viability, T/C (second compound 0.0316 µM, first compound 3.16 µM): 113%
viability, T/C (second compound 0.0316 µM, first compound 10 µM): 102%
viability, T/C (second compound 0.1 µM, first compound 0.0316 µM): 95.8%
viability, T/C (second compound 0.1 µM, first compound 0.1 µM): 109%
viability, T/C (second compound 0.1 µM, first compound 0.316 µM): 101%
viability, T/C (second compound 0.1 µM, first compound 1 µM): 116%
viability, T/C (second compound 0.1 µM, first compound 3.16 µM): 99.2%
viability, T/C (second compound 0.1 µM, first compound 10 µM): 114%
viability, T/C (second compound 0.316 µM, first compound 0.0316 µM): 112%
viability, T/C (second compound 0.316 µM, first compound 0.1 µM): 93.1%
viability, T/C (second compound 0.316 µM, first compound 0.316 µM): 104%
viability, T/C (second compound 0.316 µM, first compound 1 µM): 110%
viability, T/C (second compound 0.316 µM, first compound 3.16 µM): 113%
viability, T/C (second compound 0.316 µM, first compound 10 µM): 109%
viability, T/C (second compound 1 µM, first compound 0.0316 µM): 91.8%
viability, T/C (second compound 1 µM, first compound 0.1 µM): 104%
viability, T/C (second compound 1 µM, first compound 0.316 µM): 104%
viability, T/C (second compound 1 µM, first compound 1 µM): 109%
viability, T/C (second compound 1 µM, first compound 3.16 µM): 104%
viability, T/C (second compound 1 µM, first compound 10 µM): 125%
viability, T/C (second compound 3.16 µM, first compound 0.0316 µM): 108%
viability, T/C (second compound 3.16 µM, first compound 0.1 µM): 96%
viability, T/C (second compound 3.16 µM, first compound 0.316 µM): 94%
viability, T/C (second compound 3.16 µM, first compound 1 µM): 110%
viability, T/C (second compound 3.16 µM, first compound 3.16 µM): 112%
viability, T/C (second compound 3.16 µM, first compound 10 µM): 108%
viability, T/C (second compound 10 µM, first compound 0.0316 µM): 103%
viability, T/C (second compound 10 µM, first compound 0.1 µM): 104%
viability, T/C (second compound 10 µM, first compound 0.316 µM): 95%
viability, T/C (second compound 10 µM, first compound 1 µM): 107%
viability, T/C (second compound 10 µM, first compound 3.16 µM): 110%
viability, T/C (second compound 10 µM, first compound 10 µM): 97.5%

IC50 (compound alone, run of 12/05/2023): > 10 µM
Compound: Nc1ccc(C#CCN(C(=O)Cc2ncc(C(F)(F)F)cc2C(F)(F)F)c2ccc(F)cc2)nn1
viability, T/C (compound 0.0316 µM): 102% [middle of 13 runs]
viability, T/C (compound 0.1 µM): 104% [middle of 13 runs]
viability, T/C (compound 0.316 µM): 102% [middle of 13 runs]
viability, T/C (compound 1 µM): 96.5% [middle of 13 runs]
viability, T/C (compound 3.16 µM): 96.5% [middle of 13 runs]
viability, T/C (compound 10 µM): 95.6% [middle of 13 runs]

Compound: CC(C)n1c(=O)n(C)c2cnc3cc(F)c(-c4ccc(OCCCN5CCCCC5)nc4)cc3c21
viability, T/C (compound 0.0316 µM): 98.8% and 106% and 88.4%
viability, T/C (compound 0.1 µM): 96.7% and 99.9% and 85.7%
viability, T/C (compound 0.316 µM): 112% and 108% and 95.3%
viability, T/C (compound 1 µM): 101% and 95.5% and 94.9%
viability, T/C (compound 3.16 µM): 89.8% and 106% and 90.2%
viability, T/C (compound 10 µM): 73.4% and 78.9% and 88.5%
IC50 (curve of compound): > 10 µM

Compound: Cn1ncnc1[C@H]1c2n[nH]c(=O)c3cc(F)cc(c23)N[C@@H]1c1ccc(F)cc1
viability, T/C (compound 0.000316 µM): 107% and 92.2% and 97.5%
viability, T/C (compound 0.001 µM): 108% and 87.9% and 99%
viability, T/C (compound 0.00316 µM): 110% and 111% and 116%
viability, T/C (compound 0.01 µM): 124% and 107% and 98.2%
viability, T/C (compound 0.0316 µM): 128% and 92.6% and 95.2%
viability, T/C (compound 0.1 µM): 101% (2×) and 99.2%
IC50 (curve of compound): > 0.1 µM
